# Measured values from patent publication US20210188843A1, “QUINOLINE COMPOUNDS AND THEIR PREPARATION AND USE AS ANTIMALARIAL AGENTS” (The United States of America,as represented by the …, priority 2018, published 2021).
# Like-named read-outs stand apart in the source and are kept apart here.
# Key:
# [1] = Microsomal stability (rat); type: in vitro ADME; conditions: rat microsomes
# Solubility pH 7.4 = type: physicochemical; conditions: aqueous buffer
# [2] = test system: Asexual parasites of P. falciparum strain 3D7; experiment: In vitro drug activity on asexual parasites (SYBR Green assay); type: cell-based; conditions: Plasmodium falciparum, P. falciparum 3D7 asexual stage, 72 h, read-out: Asexual EC50
# Description: Cell culture. Asexual parasites of P. falciparum strain 3D7 were cultured as described previously [Trager W, et al., Journal of Parasitology 2005, 91: 484-486]. Stage III-V gametocytes were selected and enriched with 3-day treatment with 50 mM N-acetylglucosamine (NAG) and the following Percoll density gradient centrifugation after gametocyte production [Tanaka T Q, et al., Molecular and Biochemical Parasitology, 2011, 177: 160-163]. Gametocytes of HB3 and Dd2 strains were produced and then set up for assay in a similar process. HepG2 cells (ATCC, cat. no. 77400) were cultured in 175-cm^2 tissue culture flasks with 30 ml growth medium at 37° C. in a 5% CO2 humidified atmosphere. Growth medium was made with Dulbecco's Modified Eagle Medium with 10% fetal bovine serum (FBS). Growth medium was replaced every other day and cells were passed at 75% confluence.
# Asexual parasites of P. falciparum strain 3D7 were cultured as described previously (Trager, W. et al., J. Parasitol. 2005, 91(3): 484-486). Drug activity on asexual stage parasites was tested using a SYBR Green assay as described previously (Eastman, R. T. et al., Antimicrob. Agents Chemother. 2013, 57(1): 425-435; Smilkstein, M. et al., Antimicrob. Agents Chemother. 2004, 48(5): 1803-1806). Briefly, parasites were diluted to 0.5% parasitemia in complete culture medium with 2% hematocrit and drugs diluted in DMSO (<0.5%) and were loaded into a 96-well plate (200 μl/well). No drug and RBC alone wells were included as positive and background controls, respectively, and each testing condition was examined in duplicated. After 72 h incubation under the standard culture condition and a freeze-thaw lysis step at −80° C. and room temperature, 100 μl/well of lysis buffer containing SYBR Green I was added to the parasite culture and incubated for 30 min at room temperature. The fluorescence of each well was measured at 520 nm following excitation at 490 nm using a FLUOstar Optima™ microplate reader (BMG Labtech).
# Compounds were screened against gametocytes and asexual parasites as described in Examples 1 and 2.
# [3] = Table 1, read-out: Microsomal Stability (rat) T1/2
Compound,"half-life ([1]; Table 3, read-out: Microsomal Stability (rat) T1/2)",solubility (Solubility pH 7.4; Table 3),EC50 ([2]; Table 3),"half-life [1, 3]",solubility (Solubility pH 7.4; Table 1),EC50 ([2]; Table 1)
Cn1c(=N)n(-c2nccc(N)n2)c2c3cc(-c4cccc(F)c4)ccc3ncc21,> 30 min,5.2 µg/mL,1570 nM,–,–,–
"CCc1ccc(C#N)cc1-n1c(=N)n(C)c2cnc3ccc(-c4ccc(Cl)cc4)cc3c21 [Compound 7, 3-(8-(4-chlorophenyl)-2-imino-3-methyl-2,3-dihydro-1H-imidazo[4,5-c]quinolin-1-yl)-4-ethylbenzonitrile]",–,–,–,> 30 min,3.4 µg/mL,360 nM
"Cn1cc(-n2c(=N)n(C)c3cnc4ccc(-c5ccc(Cl)cc5)cc4c32)cn1 [Compound 13, 8-(4-chlorophenyl)-3-methyl-1-(1-methyl-1H-pyrazol-4-yl)-1,3-dihydro-2H-imidazo[4,5-c]quinolin-2-imine]",–,–,–,> 30 min,> 38 µg/mL,477 nM
"Cc1cc(N2CCN(C(=O)OC(C)(C)C)CC2)c(C#N)cc1-n1c(=N)n(C)c2cnc3ccc(-c4ccc(Cl)cc4)cc3c21 [Compound 15, tert-butyl 4-(4-(8-(4-chlorophenyl)-2-imino-3-methyl-2,3-dihydro-1H-imidazo[4,5-c]quinolin-1-yl)-2-cyano-5-methylphenyl)piperazine-1-carboxylate]",–,–,–,> 30 min,< 1 µg/mL,591 nM
"Cc1ccc(S(=O)(=O)/N=c2\n(C)c3cnc4ccc(-c5ccc(Cl)cc5)cc4c3n2-c2cc(C#N)ccc2C)cc1 [Compound 16, (E)-N-(8-(4-chlorophenyl)-1-(5-cyano-2-methylphenyl)-3-methyl-1,3-dihydro-2H-imidazo[4,5-c]quinolin-2-ylidene)-4-methylbenzenesulfonamide]",–,–,–,10.4 min,< 1 µg/mL,240 nM
"CCCC/N=c1\n(C)c2cnc3ccc(-c4ccc(Cl)cc4)cc3c2n1-c1cc(C#N)ccc1C [Compound 17, (E)-3-(2-(butylimino)-8-(4-chlorophenyl)-3-methyl-2,3-dihydro-1H-imidazo[4,5-c]quinolin-1-yl)-4-methylbenzonitrile]",–,–,–,> 30 min,1.1 µg/mL,542 nM
"CCOc1ccc(C#N)cc1-n1c(=N)n(C)c2cnc3ccc(-c4ccc(Cl)cc4)cc3c21 [Compound 19, 3-(8-(4-chlorophenyl)-2-imino-3-methyl-2,3-dihydro-1H-imidazo[4,5-c]quinolin-1-yl)-4-ethoxybenzonitrile]",–,–,–,> 30 min,26 µg/mL,778 nM
"Cn1c(=N)n(-c2cncc(C(N)=O)c2)c2c3cc(-c4ccc(Cl)cc4)ccc3ncc21 [Compound 46, 5-(8-(4-chlorophenyl)-2-imino-3-methyl-2,3-dihydro-1H-imidazo[4,5-c]quinolin-1-yl)nicotinamide]",–,–,–,> 30 min,19.9 µg/mL,1760 nM
"Cn1c(=N)n(-c2cnc(N3CCOCC3)c(C#N)c2)c2c3cc(-c4ccc(Cl)cc4)ccc3ncc21 [Compound 50, 5-(8-(4-chlorophenyl)-2-imino-3-methyl-2,3-dihydro-1H-imidazo[4,5-c]quinolin-1-yl)-2-morpholinonicotinonitrile]",–,–,–,> 30 min,< 1 µg/mL,309 nM
"Cn1c(=N)n(-c2cc(C#N)ccc2OC(F)(F)F)c2c3cc(-c4ccc(Cl)cc4)ccc3ncc21 [Compound 54, 3-(8-(4-chlorophenyl)-2-imino-3-methyl-2,3-dihydro-1H-imidazo[4,5-c]quinolin-1-yl)-4-(trifluoromethoxy)benzonitrile]",–,–,–,> 30 min,< 1 µg/mL,1420 nM

# Now from value to compound:
"half-life ([1]; Table 3, read-out: Microsomal Stability (rat) T1/2)",solubility (Solubility pH 7.4; Table 3),EC50 ([2]; Table 3),"half-life [1, 3]",solubility (Solubility pH 7.4; Table 1),EC50 ([2]; Table 1),Compound
–,–,–,> 30 min,14.2 µg/mL,8.36 nM,"Cc1ccc(C#N)cc1-n1c(=N)n(C)c2cnc3ccc(-c4ccc(C(N)=O)s4)cc3c21 [Compound 1, 5-(1-(5-cyano-2-methylphenyl)-2-imino-3-methyl-2,3-dihydro-1H-imidazo[4,5-c]quinolin-8-yl)thiophene-2-carboxamide]"
–,–,–,> 30 min,> 60 µg/mL,5.31 nM,"Cc1ccc(C#N)cc1-n1c(=N)n(C)c2cnc3ccc(-c4ccc(N)nc4)cc3c21 [Compound 2, 3-(8-(6-aminopyridin-3-yl)-2-imino-3-methyl-2,3-dihydro-H-imidazo[4,5-c]quinolin-1-yl)-4-methylbenzonitrile]"
–,–,–,> 30 min,3.6 µg/mL,20.3 nM,"Cc1ccc(C#N)cc1-n1c(=N)n(C)c2cnc3ccc(-c4ccc5c(c4)CC(=O)N5)cc3c21 [Compound 3, 3-(2-imino-3-methyl-8-(2-oxoindolin-5-yl)-2,3-dihydro-1H-imidazo[4,5-c]quinolin-1-yl)-4-methylbenzonitrile]"
–,–,–,> 30 min,< 1 µg/mL,24.4 nM,"Cn1c(=N)n(-c2cc(C#N)ccc2F)c2c3cc(-c4ccc(Cl)cc4)ccc3ncc21 [Compound 10, 3-(8-(4-chlorophenyl)-2-imino-3-methyl-2,3-dihydro-1H-imidazo[4,5-c]quinolin-1-yl)-4-fluorobenzonitrile]"
–,–,–,> 30 min,< 1 µg/mL,175 nM,"Cc1cc(N2CCNCC2)c(C#N)cc1-n1c(=N)n(C)c2cnc3ccc(-c4ccc(Cl)cc4)cc3c21 [Compound 14, 5-(8-(4-chlorophenyl)-2-imino-3-methyl-2,3-dihydro-1H-imidazo[4,5-c]quinolin-1-yl)-4-methyl-2-(piperazin-1-yl)benzonitrile]"
–,–,–,> 30 min,< 1 µg/mL,6.28 nM,"Cc1ccc(C#N)cc1-n1/c(=N/S(C)(=O)=O)n(C)c2cnc3ccc(-c4ccc(Cl)cc4)cc3c21 [Compound 20, (E)-N-(8-(4-chlorophenyl)-1-(5-cyano-2-methylphenyl)-3-methyl-1,3-dihydro-2H-imidazo[4,5-c]quinolin-2-ylidene)methanesulfonamide]"
–,–,–,> 30 min,3.5 µg/mL,62.3 nM,"Cc1ncc(C#N)cc1-n1c(=N)n(C)c2cnc3ccc(-c4ccc(Cl)cc4)cc3c21 [Compound 22, 5-(8-(4-chlorophenyl)-2-imino-3-methyl-2,3-dihydro-1H-imidazo[4,5-c]quinolin-1-yl)-6-methylnicotinonitrile]"
–,–,–,> 30 min,> 43 µg/mL,30.8 nM,"Cc1ccc(C#N)cc1-n1c(=N)n(C)c2cnc3ccc(-c4ccc(Cl)c(N)c4)cc3c21 [Compound 40, 3-(8-(3-amino-4-chlorophenyl)-2-imino-3-methyl-2,3-dihydro-1H-imidazo[4,5-c]quinolin-1-yl)-4-methylbenzonitrile]"
–,–,–,> 30 min,7.8 µg/mL,130 nM,"Cn1c(=N)n(-c2cncc(C#N)c2)c2c3cc(-c4ccc(Cl)cc4)ccc3ncc21 [Compound 45, 5-(8-(4-chlorophenyl)-2-imino-3-methyl-2,3-dihydro-1H-imidazo[4,5-c]quinolin-1-yl)nicotinonitrile]"
–,–,–,> 30 min,6 µg/mL,69.7 nM,"Cc1nc(N2CCNCC2)c(C#N)cc1-n1c(=N)n(C)c2cnc3ccc(-c4ccc(Cl)cc4)cc3c21 [Compound 47, 5-(8-(4-chlorophenyl)-2-imino-3-methyl-2,3-dihydro-1H-imidazo[4,5-c]quinolin-1-yl)-6-methyl-2-(piperazin-1-yl)nicotinonitrile]"
